Reference: patent US20080069795A1, “Amelioration of Drug-Induced Toxicity” (The John Hopkins University, priority 2004, published 2008)

Key:
[1] = test system: patients; conditions: after a single dose of cisplatin; cited from earlier work
[2] = test system: CD3 positive cells in mice kidney; experiment: Immunohistochemical staining of T cells (CD3) in post cisplatin kidneys; type: in vivo, mouse; conditions: wild type mice
Protocol: (§1) Cisplatin (cis-diammineplatinum II dichloride, Sigma-Aldrich, St.Louis, Mo.) was dissolved in 0.9% of saline at a concentration of 1 mg/ml. Mice were given a single i.p. injection either with cisplatin (40 mg/kg body weight) or with equal volume of saline. […] For kidney T cell immunohistochemical staining, three wild type mice in each group were sacrificed at 1 hr, 6 hr, 12 hr, 24 hr or 72 hr after cisplatin injection. All nu/nu or knockout mice and their littermates were sacrificed at 24 hr or 72 hr after the cisplatin administration for histology or for kidney cytokine array. All collected mice kidneys were either fixed in 10% buffered formalin for histology/immunohistochemistry, or snap frozen with liquid nitrogen for tissue cytokine array.
In order to evaluate T cell infiltrating into post cisplatin kidneys as a potential mechanism of action, immunohistochemical staining for T cell was performed on formalin-fixed kidney tissue. Briefly, after deparaffinization and rehydration, kidney sections were immersed in 3% hydrogen peroxide methanol for 5 minutes to block endogenous peroxidase. […] All cisplatin kidney sections were examined by a pathologist and a nephrologist in a blinded fashion, and CD3 positive cells were counted in at least 10 cortico-medulary fields.

[3] = test system: renal myeloperoxidase (MPO) activity; experiment: Kidney myeloperoxidase assay after cisplatin; type: in vivo, mouse; conditions: 72 hr after cisplatin
Protocol: Renal myeloperoxidase (MPO) activity was measured as described by Laight et al. (18) in the nu/nu mice and wild type mice at 72 hr after receiving cisplatin to semi-quantify neutrophils and macrophages infiltration. Briefly, kidney tissue was homogenized in a solution containing 0.5% (wt/vol) hexadecyltrimethylammonium bromide dissolved in 50 mM potassium phosphate buffer (pH 6.0) and centrifuged for 30 min at 20,000 g at 4° C. Samples were incubated in a water bath at 60° C. for 2 hr and then centrifuged at 4,000 g for 12 min. The collected supernatant (40 μl) in each sample was incubated with 160 μl of a reaction solution containing 1.6 mM tetramethylbenzidine and 3 mM H2O2 diluted in 80 mM phosphate buffer (pH 5.4) in a 96-well microplate. The rate of change in absorbance at 630 nm over 5 min was measured spectrophotometrically. MPO activity was expressed as absorbance changed per minute per 100 mg of wet tissue.

[4] = test system: IL-1β, KC, IFN-γ and TNF-α in the mouse kidney; experiment: Kidney cytokine protein array after cisplatin; type: in vivo
Protocol: as §1
In order to examine pro-inflammatory molecules generated by cisplatin, protein levels of IL-1β, IFN-γ, TNF-α and KC was measured in the mice kidney by using Bio-Rad Bio-Plex™ multiple cytokines array technique (Bio-Rad Laboratories Inc., Hercules, Calif.) described elsewhere in depth (19) with a simplified small template containing only above four cytokine/chemokines. Briefly, snap frozen kidney tissues were homogenized in a kit-attached cell-lysis buffer, and the homogenates were centrifuged at 12,000 rpm for 15 min at 4° C. Total protein concentration in each supernatant was determined by using a Bio-Rad Protein Assay I(it, and was adjusted to 500 μg/ml with the cell lysis buffer. Each sample was first incubated with a mixture of all types of micro-beads for 90 min at room temperature (RT) followed by an incubation with biotinylated detection antibodies for 30 min and then with a strepavidin-coupled phycoerythrin for 10 min (RT). Finally, the samples were subjected to a flow cytometric system. All acquired data was analyzed using Bio-Plex Manager™ 3.0 software (Bio-Rad) and corrected by total protein concentration (pg/mg protein).

[5] = test system: mice kidneys; experiment: Histological examination, semi-quantitative renal tubular injury score after cisplatin; type: in vivo, mouse; conditions: 72 hr after cisplatin 40 mg/kg, scale 0-4
Protocol: as §1
Formalin-fixed paraffin-embedded sections of mice kidneys tissues were cut and stained with hematoxylin and eosin (H&E). Renal tubular injury was assessed using a semi-quantitative scale. A pathologist blinded to the experiments scored the degrees of tubular injury. The magnitude of tubular epithelial cell loss, necrosis, intra-tubular debris and tubular cast formation was scored into six levels based on the percentage of affected tubules in a high power field (HPF) under light microscope. (0: none; 0.5: <10%; 1: 10 to 25%; 2: 25 to 50%; 3: 50 to 75%; 4: >75%).

[6] = test system: wild type, nu/nu, CD4-/- and CD8-/- mice; experiment: Assessment of renal function (serum creatinine) after cisplatin; type: in vivo, mouse
Protocol: as §1
Blood samples were obtained from mice tails prior to (0 hr) and at 24 hr, 48 hr and 72 hr after cisplatin injection. Serum creatinine was measured as a marker of renal dysfunction by a Roche Cobas Fara automated system (Roche, Nutley, N.J., USA) using a Creatinine 557 kit (Sigma Diagnostics, St. Louis, Mo., USA).

[7] = test system: wild type, nu/nu, CD4-/- and CD8-/- mice; experiment: Survival of mice after a single i.p. dose of cisplatin; type: in vivo, mouse; conditions: for survival rate: cisplatin 40 mg/kg i.p. single dose; for survival rate / survival: 72 hr
Protocol: All animal study protocols have been reviewed and approved by the Animal Care and Use Committee of Johns Hopkins University (IACUC), and all experiments were conducted according to NIH guidelines. T cell deficient athymic male mice (B6.Cg-Foxn1^nu, nu/nu) and their C57BL/6 wild type male littermates (6-8 wks, weighing 20-25 g) were purchased from The Jackson Laboratory (Bar Harbor, Me., USA). The two main defects of T cell deficient mice homozygous for the nu/nu spontaneous mutation (Foxn/nu, formerly Hfh11nu) are the abnormal hair growth and defective development of the thymus. Consequently, homozygous nu/nu mice lack T cells and cell-mediated immunity. Genetically matched wild type male littermates were used as controls and as donors of T cells adoptive transfer. CD4-deficient mice (B6.129S2-Cd4tm1Mak), CD8-deficient mice (B6.129S2-Cd8atm1Mak) and their wild type littermates were also purchased from The Jackson Laboratory. Mice were held under pathogen-free conditions in JHMI animal facility with air conditioning, 14 hr/10 hr of light and dark cycle and were free access to food and water during the experiments.
as §1
Data are expressed as mean±standard error of mean (SEM) and are compared by unpaired, two-tailed Student t tests for single comparison or by ANOVA Post Hoc test for multiple comparison. Kaplan-Meier analysis was used for mice survival analyses. Statistical significance of difference was defined when the P-value was less than 0.05.

[8] = wild type mice, 72 hr after cisplatin injection

In the case of `N.N.[Cl][Pt][Cl]` [cisplatin, cis-diamminedichloroplatinum II], the “patients who developed renal dysfunction” value [1] is listed as 25-30%, the “CD3 positive cells in the kidney” value ([2]; as early as 1 hr post cisplatin, vs saline) is listed as “markedly increased” and the “time of peak of kidney T cell increase” value ([2]; single dose of cisplatin, declined by 24 hr) is listed as 12 h. The “increase in renal MPO activity” value ([3]; nu/nu mice compared with wild type mice) was “significantly blunted”, the “renal MPO activities” value ([3]; wild type and nu/nu mice, vs individual saline controls) was “significant increase” and the “expression of pro-inflammatory molecules (IL-1β, KC, TNF-α) in the kidney” value ([4]; nu/nu mice treated with cisplatin compared to wild type mice) was “reduced expression”. For the same compound, the “renal IFN-γ protein levels” value ([4]; wild type and nu/nu mice, any time point (24 hr, 72 hr) after cisplatin) was “no increase”, the “renal IL-1β protein level” value [4, 8] was 53.43±2.61 pg/mg protein and the “renal KC protein level” value [4, 8] was 338.30±27.04 pg/mg protein. For the same compound, the “renal TNF-α protein level” value [4, 8] was 707.40±66.28 pg/mg protein, the “renal tubular injury score” value ([5]; nu/nu mice) was 0.22±0.08 and the “renal tubular injury score” value ([5]; wild type mice) was 1.44±0.15. It also gave an SCr ([6]; CD4-/- mice, 24 hr post cisplatin 40 mg/kg i.p.) of 0.50 ± 0.07 mg/dL, an SCr ([6]; CD8-/- mice, 24 hr post cisplatin 40 mg/kg i.p.) of 0.67 ± 0.08 mg/dL and a serum creatinine ([6]; nu/nu mice alone, 72 hr after cisplatin 40 mg/kg) of 0.58 ± 0.06 mg/dL. For the same compound, the serum creatinine ([6]; nu/nu mice transferred with T cells, 72 hr after cisplatin 40 mg/kg) was 1.23 ± 0.11 mg/dL, the serum creatinine ([6]; nu/nu mice, 24 hr after cisplatin 40 mg/kg) was 0.60 ± 0.05 mg/dL and the serum creatinine ([6]; nu/nu mice, 48 hr after cisplatin 40 mg/kg) was 0.56 ± 0.05 mg/dL. The serum creatinine ([6]; wild type mice, 24 hr after cisplatin 40 mg/kg (nu/nu study)) was 1.05 ± 0.11 mg/dL, the SCr ([6]; wild type mice, 24 hr post cisplatin 40 mg/kg i.p. (CD4/CD8 study)) was 1.74 ± 0.25 mg/dL and the serum creatinine ([6]; wild type mice, 48 hr after cisplatin 40 mg/kg) was 2.09 ± 0.49 mg/dL. For the same compound, the serum creatinine ([6]; wild type mice, 72 hr after cisplatin 40 mg/kg) was 3.61 ± 0.32 mg/dL, the survival rate ([7]; C57BL/6 wild type littermates of nu/nu mice) was 58% and the survival ([7]; CD4-/- mice, cisplatin 40 mg/kg i.p.) was 100%. For the same compound, the “mice died by 72 hr after cisplatin treatment” value (shortened to “mice died by 72 hr”) ([7]; CD4 deficient mice, cisplatin 40 mg/kg i.p.) was 0/6, the survival ([7]; CD8-/- mice, cisplatin 40 mg/kg i.p.) was 80% and the “mice died by 72 hr” value ([7]; CD8 deficient mice, cisplatin 40 mg/kg i.p.) was 1/6. For the same compound, the survival rate ([7]; nu/nu (T cell deficient) mice) was 100%, the survival ([7]; nu/nu mice with T cells transfer, cisplatin 40 mg/kg) was 80% and the “mice dead by 72 hr after injection” value ([7]; nu/nu mice, cisplatin 40 mg/kg i.p.) was 0/12. For the same compound, the survival ([7]; wild type littermates of CD4-/- and CD8-/- mice, cisplatin 40 mg/kg i.p.) was 50%, the “mice died by 72 hr” value ([7]; wild type littermates of CD4/CD8 deficient mice, cisplatin 40 mg/kg i.p.) was 7/12 and the “mice dead by 72 hr after injection” value ([7]; wild type littermates of nu/nu mice, cisplatin 40 mg/kg i.p.) was 6/14.
